Laboratory results as given in PubChem BioAssay AID256 (DTP/NCI, 2004).
Several values for one entry are separate records, joined by “and”; a condition that tells them apart may be missing. Identical values can stand only once. Inconclusive results and toxic doses are left out. Rule for the calls: active = survival T/C of 150% or more; inactive = T/C below 125% in these data.

Test system: CD2F1 mice, L1210 leukemia ip, survival T/C
Assay: NCI In Vivo Anticancer Drug Screen. Data for tumor model L1210 Leukemia (intraperitoneal) in CD2F1 (CDF1) mice
Conditions: higher = longer survival
Outline: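 In this screen, transplantable tumors were grown in mice given either the compound or its vehicle. Results were expressed as the treated measurement relative to the control measurement.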

[1] = endpoint: mean survival time, dose: 50.0 mg/kg/injection, schedule: Q01DX009 (ip), vehicle: saline
[2] = endpoint: mean survival time, dose: 50.0 mg/kg/injection, schedule: Q01DX009 (ip), vehicle: saline with Tween-80
[3] = endpoint: mean survival time, dose: 100.0 mg/kg/injection, schedule: Q01DX009 (ip), vehicle: saline with Tween-80
[4] = endpoint: mean survival time, dose: 100.0 mg/kg/injection, schedule: Q04DX003 (ip), vehicle: saline with Tween-80
[5] = endpoint: mean survival time, dose: 200.0 mg/kg/injection, schedule: Q04DX003 (ip), vehicle: saline with Tween-80
[6] = endpoint: mean survival time, dose: 100.0 mg/kg/injection, schedule: Q04DX002 (ip), vehicle: saline with Tween-80
[7] = endpoint: mean survival time, dose: 400.0 mg/kg/injection, schedule: Q04DX002 (ip), vehicle: saline with Tween-80

Measured: T/C

CN(C)c1ccc(/C=C\C(=O)c2ccccc2)cc1
inactive: [1] 109 % of control | endpoint: mean survival time, dose: 100.0 mg/kg/injection, schedule: Q01DX009 (ip), vehicle: saline 97 % of control | endpoint: mean survival time, dose: 200.0 mg/kg/injection, schedule: Q01DX009 (ip), vehicle: saline 106 % of control

CCCOS(=O)(=O)c1ccc(Cl)c([N+](=O)[O-])c1
inactive: [2] 97 % of control | [3] 90 % of control | [4] 94 % of control | [5] 89 % of control

S=c1cn[nH]c2ccc(Br)cc12
inactive: endpoint: mean survival time, dose: 100.0 mg/kg/injection, schedule: Q01DX001 (ip), vehicle: other 96 % of control | endpoint: mean survival time, dose: 200.0 mg/kg/injection, schedule: Q01DX001 (ip), vehicle: other 103 % of control | endpoint: mean survival time, dose: 400.0 mg/kg/injection, schedule: Q01DX001 (ip), vehicle: other 92 % of control

COc1ccc(C2=N/C(=C\c3ccccc3)C(=O)O2)cc1
inactive: [3] 96 % of control | [4] 93 % of control | endpoint: mean survival time, dose: 200.0 mg/kg/injection, schedule: Q01DX009 (ip), vehicle: saline with Tween-80 90 % of control | [5] 92 % of control | endpoint: mean survival time, dose: 400.0 mg/kg/injection, schedule: Q01DX009 (ip), vehicle: saline with Tween-80 98 % of control | endpoint: mean survival time, dose: 400.0 mg/kg/injection, schedule: Q04DX003 (ip), vehicle: saline with Tween-80 89 % of control

CSc1nn(C2OC(COC(=O)c3ccccc3)C(OC(=O)c3ccccc3)C2OC(=O)c2ccccc2)c(=O)[nH]c1=O (centres undefined)
inactive: endpoint: mean survival time, dose: 12.5 mg/kg/injection, schedule: Q01DX005 (ip), vehicle: distilled water + Tween-80 98 % of control | endpoint: mean survival time, dose: 25.0 mg/kg/injection, schedule: Q01DX005 (ip), vehicle: distilled water + Tween-80 93 % of control | endpoint: mean survival time, dose: 50.0 mg/kg/injection, schedule: Q01DX005 (ip), vehicle: distilled water + Tween-80 97 % of control | endpoint: mean survival time, dose: 100.0 mg/kg/injection, schedule: Q01DX005 (ip), vehicle: distilled water + Tween-80 93 % of control | endpoint: mean survival time, dose: 200.0 mg/kg/injection, schedule: Q01DX005 (ip), vehicle: distilled water + Tween-80 95 % of control

Cc1cc(=O)[nH]c(-n2nc(N)nc2N)n1
inactive: endpoint: mean survival time, dose: 75.0 mg/kg/injection, schedule: Q01DX001 (ip), vehicle: saline 107 % of control | endpoint: mean survival time, dose: 150.0 mg/kg/injection, schedule: Q01DX001 (ip), vehicle: saline 101 % of control | endpoint: mean survival time, dose: 300.0 mg/kg/injection, schedule: Q01DX001 (ip), vehicle: saline 101 % of control

c1cc2c3c(c1)nc(CCCc1nc4cccc5c4n1CCC5)n3CCC2
inactive: endpoint: mean survival time, dose: 25.0 mg/kg/injection, schedule: Q01DX009 (ip), vehicle: saline with Tween-80 103 % of control | [2] 96 % of control | [3] 94 % of control

CN(C)N=Nc1cccc(NC(N)=O)c1
inactive: endpoint: mean survival time, dose: 19.75 mg/kg/injection, schedule: Q01DX009 (ip), vehicle: Klucel (hydroxypropylcellulose) (HPC) 114 % of control | endpoint: mean survival time, dose: 79.0 mg/kg/injection, schedule: Q01DX009 (ip), vehicle: Klucel (hydroxypropylcellulose) (HPC) 87 % of control

CC[C@]1(O)C[C@H]2CN(CCc3c([nH]c4ccccc34)[C@@](C(=O)OC)(c3cc4c(cc3OC)N(C=O)[C@H]3[C@@](O)(C(=O)OC)[C@H](OC(C)=O)[C@]5(CC)C=CCN6CC[C@]43[C@@H]65)C2)C1
inactive: endpoint: mean survival time, dose: 0.08 mg/kg/injection, schedule: Q01DX009 (ip), vehicle: water 121 % of control | endpoint: mean survival time, dose: 0.13 mg/kg/injection, schedule: Q01DX009 (ip), vehicle: water 122 % of control | endpoint: mean survival time, dose: 0.2 mg/kg/injection, schedule: Q04DX003 (ip), vehicle: saline 115 % of control | endpoint: mean survival time, dose: 0.2 mg/kg/injection, schedule: Q04DX003 (ip), vehicle: water 106 % of control | endpoint: mean survival time, dose: 0.23 mg/kg/injection, schedule: Q04DX003 (ip), vehicle: water 121 % of control and 98 % of control | endpoint: mean survival time, dose: 0.36 mg/kg/injection, schedule: Q01DX009 (ip), vehicle: water 104 % of control | endpoint: mean survival time, dose: 0.39 mg/kg/injection, schedule: Q04DX003 (ip), vehicle: water 118 % of control and 108 % of control | endpoint: mean survival time, dose: 0.4 mg/kg/injection, schedule: Q04DX003 (ip), vehicle: water 106 % of control and 112 % of control | endpoint: mean survival time, dose: 0.5 mg/kg/injection, schedule: Q01DX009 (ip), vehicle: saline 102 % of control | endpoint: mean survival time, dose: 0.5 mg/kg/injection, schedule: Q04DX004 (ip), vehicle: saline 117 % of control and 120 % of control and 112 % of control | endpoint: mean survival time, dose: 0.65 mg/kg/injection, schedule: Q04DX003 (ip), vehicle: water 112 % of control | endpoint: mean survival time, dose: 0.8 mg/kg/injection, schedule: Q04DX003 (ip), vehicle: water 103 % of control and 110 % of control | endpoint: mean survival time, dose: 1.0 mg/kg/injection, schedule: Q01DX009 (ip), vehicle: saline 68 % of control and 73 % of control | endpoint: mean survival time, dose: 1.0 mg/kg/injection, schedule: Q04DX004 (ip), vehicle: saline 119 % of control | endpoint: mean survival time, dose: 1.08 mg/kg/injection, schedule: Q04DX003 (ip), vehicle: water 118 % of control | endpoint: mean survival time, dose: 1.5 mg/kg/injection, schedule: Q04DX003 (ip), vehicle: saline 121 % of control | endpoint: mean survival time, dose: 1.5 mg/kg/injection, schedule: Q04DX004 (ip), vehicle: saline 119 % of control | endpoint: mean survival time, dose: 1.6 mg/kg/injection, schedule: Q04DX003 (ip), vehicle: saline 120 % of control | endpoint: mean survival time, dose: 1.6 mg/kg/injection, schedule: Q04DX003 (ip), vehicle: water 117 % of control and 108 % of control | endpoint: mean survival time, dose: 78.0 micrograms/kg/injection, schedule: Q01DX009 (ip), vehicle: water 102 % of control | endpoint: mean survival time, dose: 130.0 micrograms/kg/injection, schedule: Q01DX009 (ip), vehicle: water 108 % of control | endpoint: mean survival time, dose: 216.0 micrograms/kg/injection, schedule: Q01DX009 (ip), vehicle: water 114 % of control | endpoint: mean survival time, dose: 360.0 micrograms/kg/injection, schedule: Q01DX009 (ip), vehicle: water 124 % of control | endpoint: median survival time, dose: 62.5 micrograms/kg/injection, schedule: Q01DX009 (ip), vehicle: water 115 % of control | endpoint: median survival time, dose: 125.0 micrograms/kg/injection, schedule: Q01DX009 (ip), vehicle: water 121 % of control | endpoint: median survival time, dose: 1000.0 micrograms/kg/injection, schedule: Q01DX009 (ip), vehicle: water 95 % of control

O=c1[nH]c2c(ccc3cnccc32)c2c1CCC2
inactive: endpoint: mean survival time, dose: 3.12 mg/kg/injection, schedule: Q01DX009 (ip), vehicle: saline 107 % of control | endpoint: mean survival time, dose: 6.25 mg/kg/injection, schedule: Q01DX009 (ip), vehicle: saline 100 % of control and 110 % of control | endpoint: mean survival time, dose: 12.5 mg/kg/injection, schedule: Q01DX009 (ip), vehicle: saline 96 % of control and 107 % of control | endpoint: mean survival time, dose: 25.0 mg/kg/injection, schedule: Q01DX009 (ip), vehicle: saline 119 % of control and 111 % of control | [1] 88 % of control and 96 % of control

CN(C)C(=S)Oc1ccc(S(=O)(=O)F)c(Cl)c1Cl
inactive: [6] 87 % of control | [7] 87 % of control

S=c1n(Cc2ccccc2)cnc2ncnn12
inactive: endpoint: mean survival time, dose: 100.0 mg/kg/injection, schedule: Q04DX003 (ip), vehicle: Klucel (hydroxypropylcellulose) (HPC) 98 % of control | endpoint: mean survival time, dose: 200.0 mg/kg/injection, schedule: Q04DX003 (ip), vehicle: Klucel (hydroxypropylcellulose) (HPC) 111 % of control

Cc1nc(C)c(C#N)c(=O)[nH]1
inactive: [6] 97 % of control | endpoint: mean survival time, dose: 200.0 mg/kg/injection, schedule: Q04DX002 (ip), vehicle: saline with Tween-80 97 % of control | [7] 97 % of control

CS(=O)(=O)c1nc(Cl)c(Cl)c(C#N)c1Cl
inactive: endpoint: mean survival time, dose: 5.0 mg/kg/injection, schedule: Q01DX009 (ip), vehicle: saline with Tween-80 100 % of control | endpoint: mean survival time, dose: 10.0 mg/kg/injection, schedule: Q01DX009 (ip), vehicle: saline with Tween-80 95 % of control | endpoint: mean survival time, dose: 20.0 mg/kg/injection, schedule: Q01DX009 (ip), vehicle: saline with Tween-80 95 % of control

CCOC(=O)C(N)C[S][Sn]([CH3])([CH3])[Cl] (centres undefined)
inactive: endpoint: median survival time, dose: 3.12 mg/kg/injection, schedule: Q01DX009 (ip), vehicle: saline 98 % of control | endpoint: median survival time, dose: 6.25 mg/kg/injection, schedule: Q01DX009 (ip), vehicle: saline 97 % of control | endpoint: median survival time, dose: 12.5 mg/kg/injection, schedule: Q01DX009 (ip), vehicle: saline 100 % of control | endpoint: median survival time, dose: 25.0 mg/kg/injection, schedule: Q01DX009 (ip), vehicle: saline 89 % of control
